System: 945468-187-T-J3-PDC spheroids with HUVEC/MSC, viability
Assay: Anticancer human tumor 945468-187-T-J3-PDC patient-derived rectal carcinoma cell line growth inhibition [PI3K]
Conditions: for IC50: curve of first compound; for viability, T/C: stronger effect = lower value
Outline: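 Stroma-containing spheroids: tumor line, pooled-donor HUVEC, hMSC. Treatments: targeted agents with PI3K inhibitors. Dosing: clinically relevant, half-log spacing, 10 microM ceiling without known Cmax. Read-out: cell viability.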

[1] = second compound 0.00316 µM, first compound 0.0316 µM
[2] = second compound 0.00316 µM, first compound 0.1 µM
[3] = second compound 0.00316 µM, first compound 0.316 µM
[4] = second compound 0.00316 µM, first compound 1 µM
[5] = second compound 0.00316 µM, first compound 3.16 µM
[6] = second compound 0.00316 µM, first compound 10 µM
[7] = second compound 0.01 µM, first compound 0.0316 µM
[8] = second compound 0.01 µM, first compound 0.1 µM
[9] = second compound 0.01 µM, first compound 0.316 µM
[10] = second compound 0.01 µM, first compound 1 µM
[11] = second compound 0.01 µM, first compound 3.16 µM
[12] = second compound 0.01 µM, first compound 10 µM
[13] = second compound 0.0316 µM, first compound 0.0316 µM
[14] = second compound 0.0316 µM, first compound 0.1 µM
[15] = second compound 0.0316 µM, first compound 0.316 µM
[16] = second compound 0.0316 µM, first compound 1 µM
[17] = second compound 0.0316 µM, first compound 3.16 µM
[18] = second compound 0.0316 µM, first compound 10 µM
[19] = second compound 0.1 µM, first compound 0.0316 µM
[20] = second compound 0.1 µM, first compound 0.1 µM
[21] = second compound 0.1 µM, first compound 0.316 µM
[22] = second compound 0.1 µM, first compound 1 µM
[23] = second compound 0.1 µM, first compound 3.16 µM
[24] = second compound 0.1 µM, first compound 10 µM
[25] = second compound 0.316 µM, first compound 0.0316 µM
[26] = second compound 0.316 µM, first compound 0.1 µM
[27] = second compound 0.316 µM, first compound 0.316 µM
[28] = second compound 0.316 µM, first compound 1 µM
[29] = second compound 0.316 µM, first compound 3.16 µM
[30] = second compound 0.316 µM, first compound 10 µM
[31] = second compound 1 µM, first compound 0.0316 µM
[32] = second compound 1 µM, first compound 0.1 µM
[33] = second compound 1 µM, first compound 0.316 µM
[34] = second compound 1 µM, first compound 1 µM
[35] = second compound 1 µM, first compound 3.16 µM
[36] = second compound 1 µM, first compound 10 µM
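Further: spheroids exposed to agents for 7 days before viability read.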
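Wherever viability, T/C is given: 100% = DMSO vehicle control viability.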

## C=CC(=O)N1CCN(c2nc(=O)n(-c3c(C)ccnc3C(C)C)c3nc(-c4c(O)cccc4F)c(F)cc23)C(C)C1 (stereo not given) + COc1c(OCCCN2CCOCC2)ccc2c3n(c(=NC(=O)c4cnc(N)nc4)nc12)CCN3
Second compound 0.00316 µM
  IC50: > 10000 nM
Second compound 0.01 µM
  IC50: > 10000 nM
Second compound 0.0316 µM
  IC50: > 10000 nM
Second compound 0.1 µM
  IC50: < 31.6 nM
Second compound 0.316 µM
  IC50: < 31.6 nM
Second compound 1 µM
  IC50: < 31.6 nM
[1]
  viability, T/C: 97.2%
[2]
  viability, T/C: 109%
[3]
  viability, T/C: 125%
[4]
  viability, T/C: 89.9%
[5]
  viability, T/C: 95.8%
[6]
  viability, T/C: 99.4%
[7]
  viability, T/C: 105%
[8]
  viability, T/C: 90%
[9]
  viability, T/C: 94.1%
[10]
  viability, T/C: 97.5%
[11]
  viability, T/C: 101%
[12]
  viability, T/C: 92.4%
[13]
  viability, T/C: 95.4%
[14]
  viability, T/C: 86.7%
[15]
  viability, T/C: 86.6%
[16]
  viability, T/C: 88.2%
[17]
  viability, T/C: 95.1%
[18]
  viability, T/C: 96.9%
[19]
  viability, T/C: 49.2%
[20]
  viability, T/C: 48.2%
[21]
  viability, T/C: 57.6%
[22]
  viability, T/C: 62%
[23]
  viability, T/C: 75.2%
[24]
  viability, T/C: 74.3%
[25]
  viability, T/C: 20.3%
[26]
  viability, T/C: 20.9%
[27]
  viability, T/C: 21.1%
[28]
  viability, T/C: 22.6%
[29]
  viability, T/C: 22.9%
[30]
  viability, T/C: 28.9%
[31]
  viability, T/C: 17%
[32]
  viability, T/C: 18.3%
[33]
  viability, T/C: 14.3%
[34]
  viability, T/C: 15.5%
[35]
  viability, T/C: 17.5%
[36]
  viability, T/C: 19%

## CC(Cn1ccc(-c2ccc(C#N)c(Cl)c2)n1)NC(=O)c1cc(C(C)O)[nH]n1 (stereo not given) + COc1c(OCCCN2CCOCC2)ccc2c3n(c(=NC(=O)c4cnc(N)nc4)nc12)CCN3
Second compound 0.00316 µM
  IC50: > 10000 nM
Second compound 0.01 µM
  IC50: > 10000 nM
Second compound 0.0316 µM
  IC50: > 10000 nM
Second compound 0.1 µM
  IC50: < 31.6 nM
Second compound 0.316 µM
  IC50: < 31.6 nM
Second compound 1 µM
  IC50: < 31.6 nM
[1]
  viability, T/C: 96.6%
[2]
  viability, T/C: 92.7%
[3]
  viability, T/C: 95.7%
[4]
  viability, T/C: 88.5%
[5]
  viability, T/C: 93.9%
[6]
  viability, T/C: 92.3%
[7]
  viability, T/C: 93%
[8]
  viability, T/C: 96.8%
[9]
  viability, T/C: 103%
[10]
  viability, T/C: 94.8%
[11]
  viability, T/C: 98.6%
[12]
  viability, T/C: 96.5%
[13]
  viability, T/C: 107%
[14]
  viability, T/C: 81%
[15]
  viability, T/C: 95.9%
[16]
  viability, T/C: 95.7%
[17]
  viability, T/C: 109%
[18]
  viability, T/C: 88.2%
[19]
  viability, T/C: 49.1%
[20]
  viability, T/C: 50%
[21]
  viability, T/C: 49.1%
[22]
  viability, T/C: 48.9%
[23]
  viability, T/C: 48.2%
[24]
  viability, T/C: 54.7%
[25]
  viability, T/C: 23.3%
[26]
  viability, T/C: 24.2%
[27]
  viability, T/C: 18.5%
[28]
  viability, T/C: 21.6%
[29]
  viability, T/C: 27.5%
[30]
  viability, T/C: 23.1%
[31]
  viability, T/C: 18.8%
[32]
  viability, T/C: 15.6%
[33]
  viability, T/C: 16.6%
[34]
  viability, T/C: 15.2%
[35]
  viability, T/C: 18.7%
[36]
  viability, T/C: 16.1%

## CCN1CCN(Cc2ccc(Nc3ncc(F)c(-c4cc(F)c5nc(C)n(C(C)C)c5c4)n3)nc2)CC1 + COc1c(OCCCN2CCOCC2)ccc2c3n(c(=NC(=O)c4cnc(N)nc4)nc12)CCN3
Second compound 0.00316 µM
  IC50: > 1000 nM
Second compound 0.01 µM
  IC50: 662 nM
Second compound 0.0316 µM
  IC50: 256 nM
Second compound 0.1 µM
  IC50: 5.32 nM
Second compound 0.316 µM
  IC50: < 3.16 nM
Second compound 1 µM
  IC50: < 3.16 nM
Second compound 0.00316 µM, first compound 0.00316 µM
  viability, T/C: 88.6%
Second compound 0.00316 µM, first compound 0.01 µM
  viability, T/C: 83.6%
[1]
  viability, T/C: 80.5%
[2]
  viability, T/C: 82.3%
[3]
  viability, T/C: 95.2%
[4]
  viability, T/C: 53.5%
Second compound 0.01 µM, first compound 0.00316 µM
  viability, T/C: 107%
Second compound 0.01 µM, first compound 0.01 µM
  viability, T/C: 82.3%
[7]
  viability, T/C: 110%
[8]
  viability, T/C: 89.8%
[9]
  viability, T/C: 79.4%
[10]
  viability, T/C: 33.8%
Second compound 0.0316 µM, first compound 0.00316 µM
  viability, T/C: 90.2%
Second compound 0.0316 µM, first compound 0.01 µM
  viability, T/C: 81.8%
[13]
  viability, T/C: 82.2%
[14]
  viability, T/C: 75.1%
[15]
  viability, T/C: 44.3%
[16]
  viability, T/C: 22.3%
Second compound 0.1 µM, first compound 0.00316 µM
  viability, T/C: 57%
Second compound 0.1 µM, first compound 0.01 µM
  viability, T/C: 41.3%
[19]
  viability, T/C: 30.7%
[20]
  viability, T/C: 24.1%
[21]
  viability, T/C: 18.2%
[22]
  viability, T/C: 17.9%
Second compound 0.316 µM, first compound 0.00316 µM
  viability, T/C: 25.4%
Second compound 0.316 µM, first compound 0.01 µM
  viability, T/C: 16.3%
[25]
  viability, T/C: 14.8%
[26]
  viability, T/C: 16.9%
[27]
  viability, T/C: 17.1%
[28]
  viability, T/C: 16.6%
Second compound 1 µM, first compound 0.00316 µM
  viability, T/C: 15.2%
Second compound 1 µM, first compound 0.01 µM
  viability, T/C: 16.1%
[31]
  viability, T/C: 13.6%
[32]
  viability, T/C: 16.8%
[33]
  viability, T/C: 19%
[34]
  viability, T/C: 16.4%

## Cn1ncc(Cl)c1-c1cc(C(=O)NC(CN)Cc2cccc(F)c2)sc1Cl (stereo not given) + COc1c(OCCCN2CCOCC2)ccc2c3n(c(=NC(=O)c4cnc(N)nc4)nc12)CCN3
Second compound 0.00316 µM
  IC50: 1010 nM
Second compound 0.01 µM
  IC50: 653 nM
Second compound 0.0316 µM
  IC50: 368 nM
Second compound 0.1 µM
  IC50: < 31.6 nM
Second compound 0.316 µM
  IC50: < 31.6 nM
Second compound 1 µM
  IC50: < 31.6 nM
[1]
  viability, T/C: 88.3%
[2]
  viability, T/C: 82.3%
[3]
  viability, T/C: 77.4%
[4]
  viability, T/C: 48.8%
[5]
  viability, T/C: 32.7%
[6]
  viability, T/C: 25.2%
[7]
  viability, T/C: 83.4%
[8]
  viability, T/C: 83.7%
[9]
  viability, T/C: 67%
[10]
  viability, T/C: 36.9%
[11]
  viability, T/C: 30.9%
[12]
  viability, T/C: 14.7%
[13]
  viability, T/C: 83%
[14]
  viability, T/C: 80.3%
[15]
  viability, T/C: 51.1%
[16]
  viability, T/C: 29.1%
[17]
  viability, T/C: 29%
[18]
  viability, T/C: 12.9%
[19]
  viability, T/C: 39.4%
[20]
  viability, T/C: 34.8%
[21]
  viability, T/C: 28.4%
[22]
  viability, T/C: 24.3%
[23]
  viability, T/C: 20.5%
[24]
  viability, T/C: 7.64%
[25]
  viability, T/C: 20.5%
[26]
  viability, T/C: 19.1%
[27]
  viability, T/C: 17.4%
[28]
  viability, T/C: 19.6%
[29]
  viability, T/C: 23.4%
[30]
  viability, T/C: 3.82%
[31]
  viability, T/C: 18%
[32]
  viability, T/C: 16.8%
[33]
  viability, T/C: 16.9%
[34]
  viability, T/C: 16.1%
[35]
  viability, T/C: 16%
[36]
  viability, T/C: 1.05%

## Cn1nccc1Nc1nccc(-c2ccn(C(CO)c3ccc(Cl)c(F)c3)c(=O)c2)n1 (stereo not given) + COc1c(OCCCN2CCOCC2)ccc2c3n(c(=NC(=O)c4cnc(N)nc4)nc12)CCN3
Second compound 0.00316 µM
  IC50: > 10000 nM
Second compound 0.01 µM
  IC50: > 10000 nM
Second compound 0.0316 µM
  IC50: > 10000 nM
Second compound 0.1 µM
  IC50: < 31.6 nM
Second compound 0.316 µM
  IC50: < 31.6 nM
Second compound 1 µM
  IC50: < 31.6 nM
[1]
  viability, T/C: 95.1%
[2]
  viability, T/C: 93%
[3]
  viability, T/C: 102%
[4]
  viability, T/C: 98.9%
[5]
  viability, T/C: 109%
[6]
  viability, T/C: 111%
[7]
  viability, T/C: 97.5%
[8]
  viability, T/C: 87.7%
[9]
  viability, T/C: 119%
[10]
  viability, T/C: 97.5%
[11]
  viability, T/C: 123%
[12]
  viability, T/C: 104%
[13]
  viability, T/C: 97.7%
[14]
  viability, T/C: 85%
[15]
  viability, T/C: 93.5%
[16]
  viability, T/C: 85.6%
[17]
  viability, T/C: 83.4%
[18]
  viability, T/C: 66%
[19]
  viability, T/C: 49.7%
[20]
  viability, T/C: 44.1%
[21]
  viability, T/C: 55.6%
[22]
  viability, T/C: 43.9%
[23]
  viability, T/C: 40.5%
[24]
  viability, T/C: 42.8%
[25]
  viability, T/C: 20.9%
[26]
  viability, T/C: 18.9%
[27]
  viability, T/C: 18.2%
[28]
  viability, T/C: 19.4%
[29]
  viability, T/C: 15.3%
[30]
  viability, T/C: 14.5%
[31]
  viability, T/C: 14.9%
[32]
  viability, T/C: 15.5%
[33]
  viability, T/C: 11.3%
[34]
  viability, T/C: 9.48%
[35]
  viability, T/C: 8.78%
[36]
  viability, T/C: 7.89%

Reference: PubChem BioAssay AID1963968 (Molecular Pharmacology Branch, DTP, NCI, 2024)
